Laboratory results from patent US20210212960A1, “IDENTIFICATION OF SEIZURE SUSCEPTIBILITY REGION IN WOLF-HIRSCHHORN SYNDROME AND TREATMENT THEREOF” (Lineagen, Inc., priority 2016, published 2021).

How the values were obtained:
[1] = system: seizures in individuals with WHS; assay: Parent-reported responses to seizure medications, questionnaire of the 48-individual WHS cohort (Example 1); type: in vivo, human; conditions: n users per drug; for Negative reports: number of unprompted parent reports of a negative reaction causing stop of the drug or no control over seizures; for Positive reports: number of unprompted parent reports of significant and observable increase in control over seizures
Text: This questionnaire captures the health, medical profile, developmental history, and treatment responses of individuals with WHS. For the present study, the focus was on the presence or absence of seizures, age of seizure onset, types of seizures, antiepileptic drugs (AEDs) used and responses to these AEDs, as well as responses to the ketogenic diet. For cases with incomplete, contradictory or unclear parental responses, medical records of patients were consulted. When available medical records were also incomplete, ‘no answer’ is indicated in the relevant text and tables.
AED responses were scored as negative if the patients' parents reported a negative reaction (allergic reaction or other) without prompting that caused them to stop using that drug, or if the drug conferred no control over seizures.

[2] = system: seizures in patients with 15q Duplication syndrome; conditions: cited from earlier work
[3] = system: seizures in individuals with WHS; assay: Online survey of 4p-Support Group parents: seizure control outcome by seizure treatment in WHS (Example 5); type: in vivo, human; conditions: for Seizure control outcome: Complete control, Percent / Seizure control outcome: Less than 50% reduction, Percent / Seizure control outcome: No change, Percent / Seizure control outcome: ≥50% reduction, Percent / Seizure control outcome: Increased number of seizure, Percent: percent of users of the medication
Text: This study and all recruitment materials were approved by the University of Utah IRB (IRB_00064655). The cohort for this study was recruited from the 4p-Support Group, which is comprised of parents and caretakers of individuals with WHS. Inclusion criteria were: 1) a genetic diagnosis of WHS and 2) at least one seizure treatment had been used for seizure control. An invitation to participate in the survey was sent out to all members of the 4p-Support Group email list (representing approximately 300 individuals with WHS) and posted on the 4p-Support Group's Facebook page. Individuals self-identifying as a parent or caretaker of an individual with WHS and a history of seizures, who had tried at least one seizure treatment, were invited to participate. The invitation described the purpose of the study and provided a link to the online survey.
The survey was developed by expanding the seizure history and treatment sections of a previous survey used by Ho et al (J Med Genet 2016; 53:256-263). The online survey was hosted by the HIPAA-compliant platform, RedCAP, and consisted of four sections. The first section collected general demographic information about the individual with WHS. Two additional questions were added to confirm whether the individual had genetic testing to confirm the diagnosis of WHS and ascertain which type of genetic testing had been completed. The second section focused on seizure history. This included age of onset, types of seizures, seizure duration, status epilepticus (seizures lasting longer than 30 minutes), and whether the individual still experiences seizures or is seizure free. The third section asked about antiepileptic drugs (AEDs) used for seizure treatment. Participants were asked to list each AED or combination of AEDs tried in chronological order. For each AED or combination of AEDs participants were asked about duration, effect on number of seizures, side effects, and reasons for discontinuing that AED or combination of AEDs. There were also questions about whether the individual was on a ketogenic diet or using cannabis oil during that time. Space for additional comments about each AED or combination of AEDs tried was also provided. The fourth section contained questions about use of ketogenic diet or cannabis oil while in the absence of AEDs. Again participants were asked about duration, effect on number of seizures, side effects, and reasons for discontinuing. In the case of cannabis oil use, participants were asked to specify whether pure cannabis oil or a THC mixture was used.
The levels of seizure control outcome were grouped into five categories: increased number of seizure, no change, less than 50% reduction, >50% reduction, and complete control.
When a medication was used multiple times (or when looking at combined medication), the seizure control outcome was scored as the best response among all of them. The most frequently used 5 medications reported in this cohort are phenobarbital, diazepam, lamotrigine, valproic acid (sodium valproate) and levetiracetam. We used frequency and percentages to describe the seizure control outcome of these five medications. The Kruskal-Wallis test was performed to evaluate the level of seizure control achieved with these five medications. The Wilcoxon rank sum test was performed to evaluate the hypothesis of the different seizure control outcomes between carbamazepine and levetiracetam. Comparison of the seizure control outcome based on whether levetiracetam was used first or later, was performed by the Cochran Armitage test. Statistical analysis was conducted using SAS 9.4 (SAS Inc., N.C.).

[4] = system: seizures in Dravet patients; conditions: cited from earlier work; for effectiveness of seizure treatment: individuals with Dravet syndrome
[5] = system: seizures of this subtype of CDG; conditions: subtype of CDG caused by genes functioning like PIGG; cited from earlier work
[6] = system: seizures in individuals with WHS and with Dravet syndrome; conditions: individuals with WHS as well as individuals with Dravet syndrome; cited from earlier work
[7] = levetiracetam used as first AED (n = 31)
[8] = levetiracetam used later in treatment (n = 27)

SMILES | Negative reports [1] | Positive reports [1] | response to seizure treatment [2] | Seizure control outcome: Complete control, Percent [3] [%] | Seizure control outcome: Less than 50% reduction, Percent [3] [%] | Seizure control outcome: No change, Percent [3] [%] | Seizure control outcome: ≥50% reduction, Percent [3] [%] | further results
CC[C@@H](C(N)=O)N1CCCC1=O [Levetiracetam] | 1 | 4 | generally responded well | 56.9 | 8.62 | 5.17 | 29.31 | Complete control, First use, % [3, 7]: 61.29%; Less than 50% reduction, First use, % [3, 7]: 3.23%; No change, First use, % [3, 7]: 3.23%; ≥50% reduction, First use, % [3, 7]: 32.26%; Complete control, Later use, % [3, 8]: 51.85%; Less than 50% reduction, Later use, % [3, 8]: 14.81%; No change, Later use, % [3, 8]: 7.41%; ≥50% reduction, Later use, % [3, 8]: 25.93%
Br [bromide] |  |  |  |  |  |  |  | effectiveness of seizure treatment [4]: most effective
Cc1ncc(CO)c(CO)c1O.Cl [Vitamin B6] |  |  |  |  |  |  |  | efficacy in treating seizures [5]: efficacious
Nc1nnc(-c2cccc(Cl)c2Cl)c(N)n1 [Lamotrigine] |  |  |  | 31.25 | 6.25 | 12.5 | 50 | effect on seizures [6]: exacerbate seizures
CC1(C)O[C@@H]2[C@@H](CO[C@@]3(COS(N)(=O)=O)OC(C)(C)O[C@@H]23)O1 [Topiramate] | 4 | 1 |  |  |  |  |  | 
NC(=O)N1c2ccccc2C=Cc2ccccc21 [Carbamazepine] |  |  | generally responded well | 18.18 | 18.18 | 27.27 | 9.09 | aggravates seizures, share of Dravet patients ([4]; Dravet syndrome): 20%; no benefit, share of Dravet patients ([4]; Dravet syndrome): 78%; effect on seizures [6]: exacerbate seizures; Seizure control outcome: Increased number of seizure, Percent [3]: 27.27%
CN1C(=O)CN=C(c2ccccc2)c2cc(Cl)ccc21 [Diazepam] |  |  |  | 31.25 | 6.25 | 25 | 37.5 | 
CCC1(c2ccccc2)C(=O)NC(=O)NC1=O [Phenobarbital] | 5 | 0 |  | 61.11 | 11.11 | 13.89 | 11.11 | Seizure control outcome: Increased number of seizure, Percent [3]: 2.78%
CCCC(CCC)C(=O)O [Valproic acid] | 2 | 2 | generally responded well | 50 | 9.38 | 9.38 | 31.25 | effectiveness of seizure treatment [4]: most effective
